Numbered stars: 1 amine (or outer) side, 2 acyl side, 3 side chain; on linkers, the order of the positions; unused ones are H or OH. Square brackets hold non-standard residues; d marks the D form. Peptide text beside a SMILES is read from it. * marks the point of attachment. Phe(4-Cl) = N[C@@H](Cc1ccc(Cl)cc1)C(=O)O; Pro(4R-NH2) = N[C@H]1CN[C@H](C(=O)O)C1; X2 = O=C([C@H]1CCCN([*:1])C1)[*:2]; X1 = CCCCCCCCN1CCC[C@H](C(=O)*)C1; dDap(Me2) = CN(C)C[C@@H](N)C(=O)O; Hyp = O=C(O)[C@@H]1C[C@@H](O)CN1; Aoc(2) = CCCCCC[C@H](N)C(=O)O; NHcycloheptyl = C1CCCC(N*)CC1; NMeL = CN[C@@H](CC(C)C)C(=O)O; dOrn = NCCC[C@@H](N)C(=O)O; Octanoyl = CCCCCCCC(=O)*; AEEA = NCCOCCOCC(=O)O
Target: T1, NPR-B (Homo sapiens, UniProt P20594)
T1 construct: a functional assay using endogenously NPR-B expressing GTM-3 cells; endogenous in cells; host or cells: GTM-3 (human glaucoma trabecular meshwork cells)
T1 sequence (P20594 23-1047): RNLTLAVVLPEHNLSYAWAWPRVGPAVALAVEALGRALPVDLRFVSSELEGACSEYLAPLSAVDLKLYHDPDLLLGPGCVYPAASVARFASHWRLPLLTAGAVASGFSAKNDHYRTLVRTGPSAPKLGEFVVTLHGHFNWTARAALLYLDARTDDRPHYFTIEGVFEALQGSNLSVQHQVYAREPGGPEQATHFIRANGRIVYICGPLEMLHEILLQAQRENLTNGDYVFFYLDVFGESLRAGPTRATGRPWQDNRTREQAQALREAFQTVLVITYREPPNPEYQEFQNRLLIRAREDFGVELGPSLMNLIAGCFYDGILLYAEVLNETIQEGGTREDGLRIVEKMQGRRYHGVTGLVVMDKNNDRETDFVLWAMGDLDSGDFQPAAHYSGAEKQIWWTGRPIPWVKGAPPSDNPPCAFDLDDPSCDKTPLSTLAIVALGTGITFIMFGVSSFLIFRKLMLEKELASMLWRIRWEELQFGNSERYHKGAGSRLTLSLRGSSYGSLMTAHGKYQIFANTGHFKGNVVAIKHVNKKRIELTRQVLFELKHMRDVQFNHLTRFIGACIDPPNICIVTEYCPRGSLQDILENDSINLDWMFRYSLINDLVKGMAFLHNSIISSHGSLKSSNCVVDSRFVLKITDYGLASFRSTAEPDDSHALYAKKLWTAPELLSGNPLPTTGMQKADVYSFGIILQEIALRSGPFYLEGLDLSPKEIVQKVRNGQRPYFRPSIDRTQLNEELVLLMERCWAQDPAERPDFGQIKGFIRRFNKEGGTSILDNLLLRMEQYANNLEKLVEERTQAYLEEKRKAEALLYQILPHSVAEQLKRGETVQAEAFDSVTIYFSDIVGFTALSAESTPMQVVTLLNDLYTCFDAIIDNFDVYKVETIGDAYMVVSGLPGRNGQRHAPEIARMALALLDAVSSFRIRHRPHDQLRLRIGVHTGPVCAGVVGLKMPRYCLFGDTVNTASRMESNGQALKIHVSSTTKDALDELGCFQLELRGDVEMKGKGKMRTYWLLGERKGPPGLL
Assay: NPR-B induced production of cyclic GMP in human glaucoma trabecular meshwork cells (GTM-3)
Type: cell-based
Conditions: group by EC50 and Emax (CNP = 100%); Table 4; read-out: Activity (group), NPR-B activation assayed with GTM-3 cells

Row | Structure (SMILES) | EC50 [µM]
1 | CCCCCCCC(=O)N[C@H](C)C(=O)N[C@@H](Cc1ccc(Br)cc1)C(=O)N[C@H](CCCNC(=N)N)C(=O)N[C@@H](CC(C)C)C(=O)N1C[C@H](O)C[C@H]1C(=O)N[C@@H](CC(C)C)C(=O)N[C@@H](CC(=O)O)C(=O)N[C@@H](CCCNC(=N)N)C(=O)N[C@H](C(N)=O)[C@@H](C)CC [JAL-1116, Occ-ala-Pbf-arg-Leu-Hyp-Leu-Asp-Arg-Ile-NH2] (HELM PEPTIDE1{[CCCCCCCC(=O)[*:2]].[dA].[O=C([C@H](Cc1ccc(Br)cc1)N[*:1])[*:2]].[dR].L.[Hyp].L.D.R.I.[am]}$$$$V2.0) | < 1
2 | CCCCCCCCN1CCC[C@H](C(=O)N[C@@H](Cc2ccccc2)C(=O)N[C@H](CC(C)C)C(=O)N[C@@H](CC(C)C)C(=O)N2C[C@H](N)C[C@H]2C(=O)N(C)[C@@H](CC(C)C)C(=O)N[C@@H](CC(=O)O)C(=O)N[C@@H](CCCNC(=N)N)C(=O)NC2CCCCCC2)C1 [JAL-1843, Oct-Sni-Phe-leu-Leu-Tap-Nml-Asp-Arg-Che] (X1-F[dL]L[Pro(4R-NH2)][NMeL]DR-NHcycloheptyl) | < 1
3 | CCCCCCCC(=O)N[C@H](C)C(=O)N[C@@H](Cc1ccccc1)C(=O)N[C@H](CCCNC(=N)N)C(=O)N[C@@H](CC(C)C)C(=O)N1C[C@H](O)C[C@H]1C(=O)N(C)[C@@H](CC(C)C)C(=O)N[C@@H](CC(=O)O)C(=O)N[C@@H](CCCNC(=N)N)C(=O)N[C@H](C(N)=O)C(C)(C)C [JAL-1305, Occ-ala-Phe-arg-Leu-Hyp-Nml-Asp-Arg-Tbg-NH2] (HELM PEPTIDE1{[CCCCCCCC(=O)[*:2]].[dA].F.[dR].L.[Hyp].[meL].D.R.[CC(C)(C)[C@H](N[*:1])C(=O)[*:2]].[am]}$$$$V2.0) | < 1
4 | CCCCCCCC(=O)N1CCC[C@H](C(=O)N[C@@H](Cc2ccccc2)C(=O)N[C@H](CC(C)C)C(=O)N[C@@H](CC(C)C)C(=O)N2C[C@H](O)C[C@H]2C(=O)N(C)[C@@H](CC(C)C)C(=O)N[C@@H](CC(=O)O)C(=O)N[C@@H](CCCNC(=N)N)C(=O)N(C)[C@H](C(N)=O)[C@@H](C)CC)C1 [JAL-1569, Occ-Sni-Phe-leu-Leu-Hyp-Nml-Asp-Arg-Nmi-NH2] (HELM PEPTIDE1{[CCCCCCCC(=O)[*:2]].[O=C([C@H]1CCCN([*:1])C1)[*:2]].F.[dL].L.[Hyp].[meL].D.R.[meI].[am]}$$$$V2.0) | < 1
5 | CCCCCCCC(=O)N[C@H](C)C(=O)N[C@@H](Cc1ccccc1)C(=O)N[C@H](CO)C(=O)N[C@@H](CC(C)C)C(=O)N1C[C@H](O)C[C@H]1C(=O)N(C)[C@@H](CC(C)C)C(=O)N[C@@H](CC(=O)O)C(=O)N[C@@H](CCCNC(=N)N)C(=O)N[C@H](C(N)=O)[C@@H](C)CC [JAL-1252, Occ-ala-Phe-ser-Leu-Hyp-Nml-Asp-Arg-Ile-NH2] (HELM PEPTIDE1{[CCCCCCCC(=O)[*:2]].[dA].F.[dS].L.[Hyp].[meL].D.R.I.[am]}$$$$V2.0) | < 1
6 | CCCCCCCC(=O)N1CCC[C@H](C(=O)N[C@@H](Cc2ccc(Cl)cc2)C(=O)N[C@H](CC(C)C)C(=O)N[C@@H](CC(C)C)C(=O)N2C[C@H](O)C[C@H]2C(=O)N(C)[C@@H](CC(C)C)C(=O)N[C@@H](CC(=O)O)C(=O)N[C@@H](CCCNC(=N)N)C(=O)N[C@H](C(N)=O)[C@@H](C)CC)C1 [JAL-1493, Occ-Sni-Pcf-leu-Leu-Hyp-Nml-Asp-Arg-Ile-NH2] (Octanoyl-[X2][Phe(4-Cl)][dL]L[Hyp][NMeL]DRI-NH2) | < 1
7 | CCCCCCCC(=O)N[C@H](C)C(=O)N[C@@H](Cc1ccccc1)C(=O)N[C@H](CC(C)C)C(=O)N[C@@H](CC(C)C)C(=O)N1C[C@H](N)C[C@H]1C(=O)N(C)[C@@H](CC(C)C)C(=O)N[C@@H](CC(=O)O)C(=O)N[C@@H](CCCNC(=N)N)C(=O)N[C@H](C(N)=O)[C@@H](C)CC [JAL-1296, Occ-ala-Phe-leu-Leu-Tap-Nml-Asp-Arg-Ile-NH2] (HELM PEPTIDE1{[CCCCCCCC(=O)[*:2]].[dA].F.[dL].L.[N[C@@H]1C[C@@H](C(=O)[*:2])N([*:1])C1].[meL].D.R.I.[am]}$$$$V2.0) | < 1
8 | CCCCCCCC(=O)N[C@H](C)C(=O)N[C@@H](Cc1ccc(Cl)cc1)C(=O)N[C@H](CC(C)C)C(=O)N[C@@H](CC(C)C)C(=O)N1C[C@H](O)C[C@H]1C(=O)N(C)[C@@H](CC(C)C)C(=O)N[C@@H](CC(=O)O)C(=O)N[C@@H](CCCNC(=N)N)C(=O)N[C@H](C(N)=O)[C@@H](C)CC [JAL-1043, Occ-ala-Pcf-leu-Leu-Hyp-Nml-Asp-Arg-Ile-NH2] (HELM PEPTIDE1{[CCCCCCCC(=O)[*:2]].[dA].[O=C([C@H](Cc1ccc(Cl)cc1)N[*:1])[*:2]].[dL].L.[Hyp].[meL].D.R.I.[am]}$$$$V2.0) | < 1
9 | CCCCCCCC(=O)N1CCC[C@H](C(=O)N[C@@H](Cc2ccccc2)C(=O)N[C@H](CCCN)C(=O)N[C@@H](CC(C)C)C(=O)N2C[C@H](O)C[C@H]2C(=O)N(C)[C@@H](CC(C)C)C(=O)N[C@@H](CC(=O)O)C(=O)N[C@@H](CCCNC(=N)N)C(=O)N[C@H](C(N)=O)[C@@H](C)CC)C1 [JAL-1265, Occ-Sni-Phe-orn-Leu-Hyp-Nml-Asp-Arg-Ile-NH2] (Octanoyl-[X2]F[dOrn]L[Hyp][NMeL]DRI-NH2) | < 1
10 | CCCCCCCC(=O)N1CCC[C@H](C(=O)N[C@@H](Cc2ccccc2)C(=O)N[C@H](CC(C)C)C(=O)N[C@@H](CC(C)C)C(=O)N2C[C@H](O)C[C@H]2C(=O)N[C@H](C(=O)N[C@@H](CC(=O)O)C(=O)N[C@@H](CCCNC(=N)N)C(=O)N[C@H](C(N)=O)[C@@H](C)CC)[C@@H](C)CC)C1 [JAL-1625, Occ-Sni-Phe-leu-Leu-Hyp-Ile-Asp-Arg-Ile-NH2] (HELM PEPTIDE1{[CCCCCCCC(=O)[*:2]].[O=C([C@H]1CCCN([*:1])C1)[*:2]].F.[dL].L.[Hyp].I.D.R.I.[am]}$$$$V2.0) | < 1
11 | CCCCCCCC(=O)N[C@H](C)C(=O)N[C@@H](Cc1ccccc1)C(=O)N[C@H](CC(C)C)C(=O)N[C@@H](CC(C)C)C(=O)N1C[C@H](O)C[C@H]1C(=O)N(C)[C@@H](CC(C)C)C(=O)N[C@@H](CC(=O)O)C(=O)N[C@@H](CCCNC(=N)N)C(=O)NC1(C(N)=O)CCCCC1 [JAL-1358, Occ-ala-Phe-leu-Leu-Hyp-Nml-Asp-Arg-Egz-NH2] (HELM PEPTIDE1{[CCCCCCCC(=O)[*:2]].[dA].F.[dL].L.[Hyp].[meL].D.R.[O=C(C1(N[*:1])CCCCC1)[*:2]].[am]}$$$$V2.0) | < 1
12 | CCCCCCCC(=O)N1CCC[C@H](C(=O)N[C@@H](Cc2ccccc2)C(=O)N[C@H](CC(C)C)C(=O)N[C@@H](CC(C)C)C(=O)N2C[C@H](O)C[C@H]2C(=O)N(C)[C@@H](CC(C)C)C(=O)N[C@@H](CO)C(=O)N[C@@H](CCCNC(=N)N)C(=O)NC2CCCCCC2)C1 [JAL-1752, Occ-Sni-Phe-leu-Leu-Hyp-Nml-Ser-Arg-Che] (Octanoyl-[X2]F[dL]L[Hyp][NMeL]SR-NHcycloheptyl) | < 1
13 | CCCCCCCC(=O)N1CCC[C@H](C(=O)N[C@@H](Cc2ccccc2)C(=O)N[C@H](CN(C)C)C(=O)N[C@@H](CC(C)C)C(=O)N2C[C@H](N)C[C@H]2C(=O)N(C)[C@@H](CC(C)C)C(=O)N[C@@H](CC(=O)O)C(=O)N2CCC[C@H]2C(=O)NC2CCCCCC2)C1 [JAL-1603, Occ-Sni-Phe-dap(Me2)-Leu-Tap-Nml-Asp-Pro-Che] (Octanoyl-[X2]F[dDap(Me2)]L[Pro(4R-NH2)][NMeL]DP-NHcycloheptyl) | < 1
14 | CCCCCCCC(=O)N[C@@]1(C)CCN([C@@H](Cc2ccccc2)C(=O)N[C@H](CC(C)C)C(=O)N[C@@H](CC(C)C)C(=O)N2C[C@H](O)C[C@H]2C(=O)N(C)[C@@H](CC(C)C)C(=O)N[C@@H](CC(=O)O)C(=O)N[C@@H](CCCNC(=N)N)C(=O)N[C@H](C(N)=O)[C@@H](C)CC)C1=O [JAL-1774, (AR-314-102)-leu-Leu-Hyp-Nml-Asp-Arg-Ile-NH2] | < 1
15 | CCCCCC[C@H](NC(=O)COCCOCCN)C(=O)N1CCC[C@H](C(=O)N[C@@H](Cc2ccccc2)C(=O)N[C@H](CC(C)C)C(=O)N[C@@H](CC(C)C)C(=O)N2C[C@H](O)C[C@H]2C(=O)N(C)[C@@H](CC(C)C)C(=O)N[C@@H](CC(=O)O)C(=O)N[C@@H](CCCNC(=N)N)C(=O)N[C@H](C(N)=O)[C@@H](C)CC)C1 [JAL-1808, H-Adx-Hgl-Sni-Phe-leu-Leu-Hyp-Nml-Asp-Arg-Ile-NH2] (H-[AEEA][Aoc(2)][X2]F[dL]L[Hyp][NMeL]DRI-NH2) | < 1
16 | CCCCCCCC(=O)N[C@H](C)C(=O)N(C)[C@@H](Cc1ccccc1)C(=O)N[C@H](CC(C)C)C(=O)N[C@@H](CC(C)C)C(=O)N1C[C@H](O)C[C@H]1C(=O)N[C@@H](CC(C)C)C(=O)N[C@@H](CC(=O)O)C(=O)N[C@@H](CCCNC(=N)N)C(=O)N[C@H](C(N)=O)[C@@H](C)CC [JAL-1052, Occ-ala-Nmf-leu-Leu-Hyp-Leu-Asp-Arg-Ile-NH2] (HELM PEPTIDE1{[CCCCCCCC(=O)[*:2]].[dA].[meF].[dL].L.[Hyp].L.D.R.I.[am]}$$$$V2.0) | < 1

From patent US9822147B2, “Methods of treating ophthalmic diseases using NPR-B agonists” (priority 2009, dated 2017)
